Laboratory results as given in patent US4874862A, “Process for preparing guanine derivatives” (Warner-Lambert Company, priority 1987, dated 1989).

Tested on: T-cells
Assay: standard test of selective cytotoxicity for T-cells in the presence of 2'-deoxyguanosine
Assay type: cell-based
Settings: in the presence of 10 uM of 2'-deoxyguanosine
Protocol: PNP-4 activity was measured radiochemically by measuring the formation of [^14 -C]-hypoxanthine from [^14 -C]-inosine [Biomedicine, 33, 39 (1980)] using human erythrocyte as the enzyme source. The same compounds also were found by a standard test (Science, 214, 1137, (1981)] to be selectively cytotoxic for T-cells in the presence of 2'-deoxyguanosine at a similar concentration range. For example, 8-amino-9-[(4-methylphenyl)methyl]guanine is selectively cytotoxic to T-cells at a concentration of about 3.1 uM in the presence of 10 uM of 2'-deoxyguanosine. Similarly, 8-amino-9-[(4-methoxyphenyl)methyl]guanine is selectively cytotoxic to T-cells at a concentration of about 1.1 uM in the presence of 10 uM of 2'-deoxyguanosine. On the other hand, these compounds were nontoxic to B-cells in the presence or absence of the same amount of 2'-deoxyguanosine. Since T-cells play a central role in immune response, use of the compounds of the invention is contemplated for the immunoregulation of rejection in transplantation and autoimmune disease such as rheumatoid arthritis, systemic lupus erythematosus, inflammatory bowel disease, cancer, juvenile diabetes, myasthenia gravis, multiple sclerosis, and viral diseases. […]

SMILES | concentration at which selectively cytotoxic to T-cells
COc1ccc(Cn2c(N)nc3c(=O)[nH]c(N)nc32)cc1 [8-amino-9-[(4-methoxyphenyl)methyl]guanine] | about 1.1 uM
Cc1ccc(Cn2c(N)nc3c(=O)[nH]c(N)nc32)cc1 [8-amino-9-[(4-methylphenyl)methyl]guanine] | about 3.1 uM
